Reference: patent publication US20260305610A1, “TRIAZOLE COMPOUND, AND PREPARATION METHOD THEREFOR, HERBICIDAL COMPOSITION AND USE THEREOF” (QINGDAO KINGAGROOT CHEMICAL COMPOUND CO., LTD., priority 2023, published 2026)

How the values were obtained:
major crops = assay: Pre-emergence test experiment (crops); assay type: in vivo; parameters: key: 9: completely dead; 8: growth control rate is greater than or equal to 90% and less than 100%; 7: growth control rate is greater than or equal to 80% and less than 90%; 6: growth control rate is greater than or equal to 70% and less than 80%; growth control rate is greater than or equal to 50% and less than 70%; 4: growth control rate is greater than or equal to 30% and less than 50%; growth control rate is greater than or equal to 20% and less than 30%; growth control rate is greater than or equal to 10% and less than 20%; growth control rate is less than 10%; 0: no effect; conditions: 30 g a.i./ha
[1] = tested on: monocotyledonous and dicotyledonous weeds; assay: Pre-emergence test experiment (weeds); assay type: in vivo; parameters: key: 9: completely dead; 8: growth control rate is greater than or equal to 90% and less than 100%; 7: growth control rate is greater than or equal to 80% and less than 90%; 6: growth control rate is greater than or equal to 70% and less than 80%; growth control rate is greater than or equal to 50% and less than 70%; 4: growth control rate is greater than or equal to 30% and less than 50%; growth control rate is greater than or equal to 20% and less than 30%; growth control rate is greater than or equal to 10% and less than 20%; growth control rate is less than 10%; 0: no effect; conditions: 30 g a.i./ha

SMILES	Pre-emergence plant damage level (growth control rate) on Corn (major crops)	Pre-emergence plant damage level (growth control rate) on Cotton (major crops)	Pre-emergence plant damage level (growth control rate) on Soybean (major crops)	Pre-emergence activity level (growth control rate) on Amaranthus retroflexus [1]	Pre-emergence activity level (growth control rate) on Descurainia sophia [1]	Pre-emergence activity level (growth control rate) on Digitaria sanguinalis [1]	Pre-emergence activity level (growth control rate) on Setaria viridis [1]	Pre-emergence activity level (growth control rate) on Solanum nigrum [1]	Pre-emergence activity level (growth control rate) on Veronica [1]
Cc1ccc(-n2cnc(C(F)(F)F)n2)nc1Oc1cncc(C(F)(F)F)c1 [Compound 11]	0	0	0	9	9	9	9	9	9
Cc1ccc(-n2cnc(C(F)(F)F)n2)nc1Oc1cccc(C(F)F)c1 [Compound 12]	0	0	0	9	9	9	9	9	9
Cc1ccc(-n2cnc(C(C)(F)F)n2)nc1Oc1cccc(C(F)(F)F)c1 [Compound 13]	0	0	0	9	9	8 (growth control rate is greater than or equal to 90% and less than 100%)	7 (growth control rate is greater than or equal to 80% and less than 90%)	–	9
Cc1ccc(-n2cnc(C(F)(F)C(F)(F)F)n2)nc1Oc1cccc(C(F)(F)F)c1 [Compound 14]	0	0	0	9	9	8 (growth control rate is greater than or equal to 90% and less than 100%)	9	9	9
Cc1ccc(-n2cnc(C(F)(F)C(F)(F)F)n2)nc1Oc1cncc(C(F)(F)F)c1 [Compound 15]	0	0	0	9	9	8 (growth control rate is greater than or equal to 90% and less than 100%)	9	8 (growth control rate is greater than or equal to 90% and less than 100%)	9
CCc1ccc(-n2cnc(C(F)(F)F)n2)nc1Oc1cncc(C(F)(F)F)c1 [Compound 17]	0	0	0	9	9	9	9	9	9
CCc1ccc(-n2cnc(C(C)(F)F)n2)nc1Oc1cccc(C(F)(F)F)c1 [Compound 18]	0	0	0	9	9	8 (growth control rate is greater than or equal to 90% and less than 100%)	8 (growth control rate is greater than or equal to 90% and less than 100%)	8 (growth control rate is greater than or equal to 90% and less than 100%)	9
CCc1ccc(-n2cnc(C(F)(F)C(F)(F)F)n2)nc1Oc1cccc(C(F)(F)F)c1 [Compound 19]	0	0	0	9	9	8 (growth control rate is greater than or equal to 90% and less than 100%)	8 (growth control rate is greater than or equal to 90% and less than 100%)	8 (growth control rate is greater than or equal to 90% and less than 100%)	9
CCCc1ccc(-n2cnc(C(F)(F)F)n2)nc1Oc1cccc(C(F)(F)F)c1 [Compound 21]	0	0	0	9	9	8 (growth control rate is greater than or equal to 90% and less than 100%)	8 (growth control rate is greater than or equal to 90% and less than 100%)	7 (growth control rate is greater than or equal to 80% and less than 90%)	9
FC(F)(F)c1cccc(Oc2nc(-n3cnc(C(F)(F)F)n3)ccc2C2CC2)c1 [Compound 22]	0	0	0	9	9	7 (growth control rate is greater than or equal to 80% and less than 90%)	8 (growth control rate is greater than or equal to 90% and less than 100%)	7 (growth control rate is greater than or equal to 80% and less than 90%)	9
Cc1ccc(-n2cnc(C(F)(F)F)n2)nc1Oc1cccc(F)c1 [Compound 39]	0	0	0	9	–	–	–	–	9
Cc1ccc(-n2cnc(C(F)(F)F)n2)nc1Oc1cccc(Cl)c1 [Compound 40]	0	0	0	9	9	7 (growth control rate is greater than or equal to 80% and less than 90%)	7 (growth control rate is greater than or equal to 80% and less than 90%)	7 (growth control rate is greater than or equal to 80% and less than 90%)	9
Cc1ccc(-n2cnc(C(F)(F)F)n2)nc1Oc1cccc(OC(F)F)c1 [Compound 43]	0	0	0	9	9	9	8 (growth control rate is greater than or equal to 90% and less than 100%)	7 (growth control rate is greater than or equal to 80% and less than 90%)	9
Cc1ccc(-n2cnc(C(F)(F)C(F)(F)F)n2)nc1Oc1cccc(OC(F)(F)F)c1 [Compound 65]	0	0	0	–	9	9	9	–	–
